According to ChEMBL document CHEMBL5303764, “Data for DCP probe BI-3812” (2023):

Columns and labels:
[1] = target: Mitogen-activated protein kinase 9 (Homo sapiens) (UniProt P45984); assay: MAPK9 Invitrogen Lab (UK) kinase screen (BI); conditions: Compound concentration 1.0 uM
[2] = target: Rho-associated protein kinase 2 (Homo sapiens) (UniProt O75116); assay: ROCK2 Invitrogen Lab (UK) kinase screen (BI); conditions: Compound concentration 1.0 uM
[3] = target: Inhibitor of nuclear factor kappa-B kinase subunit beta (Homo sapiens) (UniProt O14920); assay: IKBKB Invitrogen Lab (UK) kinase screen (BI); conditions: Compound concentration 1.0 uM
[4] = target: Delta-type opioid receptor (Homo sapiens) (UniProt P41143); assay: DELTA2/H Eurofins SafetyScreen44 (BI); conditions: Compound concentration 10.0 uM
[5] = target: Tyrosine-protein kinase ABL1 (Homo sapiens) (UniProt P00519); assay: ABL1 Invitrogen Lab (UK) kinase screen (BI); conditions: Compound concentration 1.0 uM
[6] = target: Tyrosine-protein kinase Lyn (Homo sapiens) (UniProt P07948); assay: LYN A Invitrogen Lab (UK) kinase screen (BI); conditions: Compound concentration 1.0 uM
[7] = target: Sigma intracellular receptor 2 (Homo sapiens) (UniProt Q5BJF2); conditions: Compound concentration 10.0 uM
Sigma intracellular receptor 2 (Homo sapiens), sequence (Q5BJF2 whole entry): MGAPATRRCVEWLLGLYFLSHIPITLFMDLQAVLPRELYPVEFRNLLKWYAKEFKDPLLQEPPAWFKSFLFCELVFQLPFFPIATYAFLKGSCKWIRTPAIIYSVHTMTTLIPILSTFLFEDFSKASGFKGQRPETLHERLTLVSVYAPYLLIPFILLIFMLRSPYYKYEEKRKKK

[8] = target: Endothelin-1 receptor (Homo sapiens) (UniProt P25101); assay: ETA/H Eurofins SafetyScreen44 (BI); conditions: Compound concentration 10.0 uM
[9] = target: Cyclin-dependent kinase 2/cyclin A (Homo sapiens) (UniProt P24941+P20248+P78396); assay: CDK2/CYCLINA Invitrogen Lab (UK) kinase screen (BI); assay type: protein-complex assay; conditions: Compound concentration 1.0 uM
[10] = target: Sodium-dependent dopamine transporter (Homo sapiens) (UniProt Q01959); conditions: Compound concentration 10.0 uM
Sodium-dependent dopamine transporter (Homo sapiens), sequence (Q01959 whole entry): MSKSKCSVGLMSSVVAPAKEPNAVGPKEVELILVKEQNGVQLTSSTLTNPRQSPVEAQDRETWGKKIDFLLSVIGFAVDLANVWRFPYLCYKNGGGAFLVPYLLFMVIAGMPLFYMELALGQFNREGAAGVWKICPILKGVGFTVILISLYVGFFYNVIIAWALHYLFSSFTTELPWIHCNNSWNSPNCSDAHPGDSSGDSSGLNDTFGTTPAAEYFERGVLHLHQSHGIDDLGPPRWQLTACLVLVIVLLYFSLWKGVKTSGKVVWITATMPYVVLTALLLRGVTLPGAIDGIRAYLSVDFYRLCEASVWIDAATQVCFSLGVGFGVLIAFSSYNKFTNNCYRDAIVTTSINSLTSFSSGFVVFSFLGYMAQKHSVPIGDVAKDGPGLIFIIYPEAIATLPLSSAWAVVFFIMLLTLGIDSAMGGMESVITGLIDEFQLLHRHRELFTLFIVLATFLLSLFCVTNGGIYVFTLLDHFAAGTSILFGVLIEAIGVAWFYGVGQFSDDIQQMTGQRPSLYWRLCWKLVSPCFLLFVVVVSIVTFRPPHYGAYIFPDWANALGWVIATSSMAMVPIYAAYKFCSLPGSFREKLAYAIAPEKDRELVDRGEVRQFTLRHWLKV

[11] = target: Vasopressin V1a receptor (Homo sapiens) (UniProt P37288); assay: V1A/HUM Eurofins SafetyScreen44 (BI); conditions: Compound concentration 10.0 uM
[12] = target: Sodium-dependent noradrenaline transporter (Homo sapiens) (UniProt P23975); assay: NEUP/H Eurofins SafetyScreen44 (BI); conditions: Compound concentration 10.0 uM
Sodium-dependent noradrenaline transporter (Homo sapiens), sequence (P23975 whole entry): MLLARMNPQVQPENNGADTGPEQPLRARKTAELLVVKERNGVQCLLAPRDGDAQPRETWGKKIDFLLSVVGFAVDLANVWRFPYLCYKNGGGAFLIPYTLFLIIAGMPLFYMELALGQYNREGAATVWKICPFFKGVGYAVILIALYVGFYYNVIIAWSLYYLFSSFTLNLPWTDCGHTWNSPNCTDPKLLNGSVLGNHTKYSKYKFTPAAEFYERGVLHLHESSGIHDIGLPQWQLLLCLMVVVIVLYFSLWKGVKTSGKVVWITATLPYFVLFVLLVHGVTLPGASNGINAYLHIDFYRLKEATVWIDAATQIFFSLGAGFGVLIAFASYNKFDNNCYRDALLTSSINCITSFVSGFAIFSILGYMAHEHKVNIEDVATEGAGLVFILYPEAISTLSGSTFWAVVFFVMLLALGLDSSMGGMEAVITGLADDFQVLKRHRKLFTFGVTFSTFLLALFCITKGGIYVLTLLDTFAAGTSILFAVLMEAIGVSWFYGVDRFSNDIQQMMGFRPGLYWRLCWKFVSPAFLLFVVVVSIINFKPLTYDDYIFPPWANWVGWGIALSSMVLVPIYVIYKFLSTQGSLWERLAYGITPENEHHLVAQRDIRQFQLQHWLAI

[13] = target: Sodium-dependent serotonin transporter (Homo sapiens) (UniProt P31645); conditions: Compound concentration 10.0 uM
Sodium-dependent serotonin transporter (Homo sapiens), sequence (P31645 whole entry, looked up): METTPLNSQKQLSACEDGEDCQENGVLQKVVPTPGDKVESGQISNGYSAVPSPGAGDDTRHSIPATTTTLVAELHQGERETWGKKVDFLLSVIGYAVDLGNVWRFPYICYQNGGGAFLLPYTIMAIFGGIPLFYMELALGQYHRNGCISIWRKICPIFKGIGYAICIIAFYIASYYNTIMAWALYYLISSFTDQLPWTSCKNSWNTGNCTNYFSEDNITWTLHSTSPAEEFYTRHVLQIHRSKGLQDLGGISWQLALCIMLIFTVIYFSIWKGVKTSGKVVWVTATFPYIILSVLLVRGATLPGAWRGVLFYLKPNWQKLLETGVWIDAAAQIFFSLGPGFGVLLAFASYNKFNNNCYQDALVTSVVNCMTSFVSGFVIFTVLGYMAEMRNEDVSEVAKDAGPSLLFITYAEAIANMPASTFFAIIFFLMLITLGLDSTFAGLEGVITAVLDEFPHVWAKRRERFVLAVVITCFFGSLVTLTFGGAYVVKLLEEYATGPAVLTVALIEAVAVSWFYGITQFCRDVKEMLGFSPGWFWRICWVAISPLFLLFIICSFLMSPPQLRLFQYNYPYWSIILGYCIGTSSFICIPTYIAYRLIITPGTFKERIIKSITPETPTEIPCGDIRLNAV

[14] = target: Sodium-dependent noradrenaline transporter (Homo sapiens) (UniProt P23975); conditions: Compound concentration 10.0 uM
[15] = target: High affinity nerve growth factor receptor (Homo sapiens) (UniProt P04629); assay: NTRK1 Invitrogen Lab (UK) kinase screen (BI); conditions: Compound concentration 1.0 uM
[16] = target: 5-hydroxytryptamine receptor 1A (Homo sapiens) (UniProt P08908); conditions: Compound concentration 10.0 uM
5-hydroxytryptamine receptor 1A (Homo sapiens), sequence (P08908 whole entry): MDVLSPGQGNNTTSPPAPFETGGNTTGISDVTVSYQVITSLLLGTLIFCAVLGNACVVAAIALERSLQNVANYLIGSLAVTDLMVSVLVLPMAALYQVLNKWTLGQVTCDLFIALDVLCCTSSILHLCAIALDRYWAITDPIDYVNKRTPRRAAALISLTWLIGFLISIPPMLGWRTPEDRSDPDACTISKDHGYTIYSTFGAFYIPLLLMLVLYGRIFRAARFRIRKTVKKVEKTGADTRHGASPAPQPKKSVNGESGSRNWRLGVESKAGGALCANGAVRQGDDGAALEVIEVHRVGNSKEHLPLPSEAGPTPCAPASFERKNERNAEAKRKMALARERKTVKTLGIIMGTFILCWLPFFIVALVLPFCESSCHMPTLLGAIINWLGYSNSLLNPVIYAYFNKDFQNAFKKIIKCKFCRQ

[17] = target: 5-hydroxytryptamine receptor 5A (Homo sapiens) (UniProt P47898); conditions: Compound concentration 10.0 uM
5-hydroxytryptamine receptor 5A (Homo sapiens), sequence (P47898 whole entry): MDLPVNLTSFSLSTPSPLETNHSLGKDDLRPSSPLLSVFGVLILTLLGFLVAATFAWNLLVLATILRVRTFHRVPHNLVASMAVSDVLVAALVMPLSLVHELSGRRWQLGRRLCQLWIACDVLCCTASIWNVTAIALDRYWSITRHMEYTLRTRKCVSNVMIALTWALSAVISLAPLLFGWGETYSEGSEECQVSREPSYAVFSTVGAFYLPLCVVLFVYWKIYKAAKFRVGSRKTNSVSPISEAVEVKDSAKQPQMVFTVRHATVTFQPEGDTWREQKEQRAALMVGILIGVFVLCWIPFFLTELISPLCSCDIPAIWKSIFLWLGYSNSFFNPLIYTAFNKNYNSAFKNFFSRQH

[18] = target: Aurora kinase B (Homo sapiens) (UniProt Q96GD4); assay: AURKB Invitrogen Lab (UK) kinase screen (BI); conditions: Compound concentration 1.0 uM
[19] = target: Focal adhesion kinase 1 (Homo sapiens) (UniProt Q05397); assay: PTK2 Invitrogen Lab (UK) kinase screen (BI); conditions: Compound concentration 1.0 uM
[20] = target: Histamine H2 receptor (Homo sapiens) (UniProt P25021); assay: H2/APT/HS Eurofins SafetyScreen44 (BI); conditions: filed as antagonist, Compound concentration 10.0 uM
[21] = target: Adenosine receptor A2a (Homo sapiens) (UniProt P29274); assay: A2A/H Eurofins SafetyScreen44 (BI); conditions: filed as antagonist, Compound concentration 10.0 uM
[22] = target: Muscarinic acetylcholine receptor M2 (Homo sapiens) (UniProt P08172); assay: M2/H Eurofins SafetyScreen44 (BI); conditions: filed as antagonist, Compound concentration 10.0 uM
[23] = target: 3',5'-cyclic-AMP phosphodiesterase 4D (Homo sapiens) (UniProt Q08499); assay: PDE4D2 Eurofins SafetyScreen44 (BI); conditions: Compound concentration 10.0 uM
[24] = target: Muscarinic acetylcholine receptor M5 (Homo sapiens) (UniProt P08912); conditions: Compound concentration 10.0 uM
Muscarinic acetylcholine receptor M5 (Homo sapiens), sequence (P08912 whole entry): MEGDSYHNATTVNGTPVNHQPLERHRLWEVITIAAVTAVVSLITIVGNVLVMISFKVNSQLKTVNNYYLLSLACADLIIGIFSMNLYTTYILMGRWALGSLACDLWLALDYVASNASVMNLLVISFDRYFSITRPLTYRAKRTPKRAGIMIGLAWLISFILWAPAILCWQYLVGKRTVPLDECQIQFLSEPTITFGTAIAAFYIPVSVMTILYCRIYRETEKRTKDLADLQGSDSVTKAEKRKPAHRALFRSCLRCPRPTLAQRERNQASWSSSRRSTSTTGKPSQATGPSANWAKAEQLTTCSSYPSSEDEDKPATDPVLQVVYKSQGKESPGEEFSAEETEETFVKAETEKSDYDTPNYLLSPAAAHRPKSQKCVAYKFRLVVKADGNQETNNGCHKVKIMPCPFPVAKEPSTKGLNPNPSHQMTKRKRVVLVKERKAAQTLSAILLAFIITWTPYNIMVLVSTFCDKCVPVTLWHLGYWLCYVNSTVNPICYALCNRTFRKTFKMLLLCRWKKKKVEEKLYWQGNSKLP

[25] = target: Ribosomal protein S6 kinase alpha-3 (Homo sapiens) (UniProt P51812); assay: RPS6KA3 Invitrogen Lab (UK) kinase screen (BI); conditions: Compound concentration 1.0 uM
[26] = target: cGMP-inhibited 3',5'-cyclic phosphodiesterase 3A (Homo sapiens) (UniProt Q14432); assay: PDE3A Eurofins SafetyScreen44 (BI); conditions: Compound concentration 10.0 uM
[27] = target: Histamine H1 receptor (Homo sapiens) (UniProt P35367); assay: H1/PYRIL/HS Eurofins SafetyScreen44 (BI); conditions: Compound concentration 10.0 uM
Histamine H1 receptor (Homo sapiens), sequence (P35367 whole entry): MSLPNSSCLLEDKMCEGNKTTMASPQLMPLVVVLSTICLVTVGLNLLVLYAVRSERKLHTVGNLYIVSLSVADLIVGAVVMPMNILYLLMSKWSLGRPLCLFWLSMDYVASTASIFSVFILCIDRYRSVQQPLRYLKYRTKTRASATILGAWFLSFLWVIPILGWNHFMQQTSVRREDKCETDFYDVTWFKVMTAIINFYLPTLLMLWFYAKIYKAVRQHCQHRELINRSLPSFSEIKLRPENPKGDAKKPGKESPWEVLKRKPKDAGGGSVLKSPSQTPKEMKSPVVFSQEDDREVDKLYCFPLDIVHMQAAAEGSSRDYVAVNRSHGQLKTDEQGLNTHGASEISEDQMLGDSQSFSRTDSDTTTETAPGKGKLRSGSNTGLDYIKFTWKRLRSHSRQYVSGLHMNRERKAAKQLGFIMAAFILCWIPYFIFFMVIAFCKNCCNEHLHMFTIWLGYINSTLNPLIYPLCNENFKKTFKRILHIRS

[28] = target: Glucocorticoid receptor (Homo sapiens) (UniProt P04150); assay: GCORTICOID/H Eurofins SafetyScreen44 (BI); conditions: Compound concentration 10.0 uM
[29] = target: L-type Ca2+ channel (dihydropyridine site), Cav1.2 alpha-1C (Rattus norvegicus, UniProt P22002); assay: CA+/DHPSI/R Eurofins SafetyScreen44 (BI); conditions: rat brain, probe [3H](+)PN200-110, compound concentration 10 uM, read-out: % Ctrl
[30] = target: Cholecystokinin receptor type A (Homo sapiens) (UniProt P32238); assay: CCKA/H Eurofins SafetyScreen44 (BI); conditions: Compound concentration 10.0 uM
[31] = target: Interleukin-1 receptor-associated kinase 4 (Homo sapiens) (UniProt Q9NWZ3); assay: IRAK4 Invitrogen Lab (UK) kinase screen (BI); conditions: Compound concentration 1.0 uM
[32] = target: Alpha-2A adrenergic receptor (Homo sapiens) (UniProt P08913); assay: ALPHA2A/HU Eurofins SafetyScreen44 (BI); conditions: Compound concentration 10.0 uM
[33] = target: Glycogen synthase kinase-3 beta (Homo sapiens) (UniProt P49841); assay: GSK3B Invitrogen Lab (UK) kinase screen (BI); conditions: Compound concentration 1.0 uM
[34] = target: Androgen receptor (Homo sapiens) (UniProt P10275); assay: ANDROGEN/H Eurofins SafetyScreen44 (BI); conditions: Compound concentration 10.0 uM
[35] = target: Myosin light chain kinase 2, skeletal/cardiac muscle (Homo sapiens) (UniProt Q9H1R3); assay: MYLK2 Invitrogen Lab (UK) kinase screen (BI); conditions: Compound concentration 1.0 uM
[36] = target: Tyrosine-protein kinase ITK/TSK (Homo sapiens) (UniProt Q08881); assay: ITK Invitrogen Lab (UK) kinase screen (BI); conditions: Compound concentration 1.0 uM
[37] = target: 5-hydroxytryptamine receptor 7 (Homo sapiens) (UniProt P34969); conditions: Compound concentration 10.0 uM
5-hydroxytryptamine receptor 7 (Homo sapiens), sequence (P34969 whole entry): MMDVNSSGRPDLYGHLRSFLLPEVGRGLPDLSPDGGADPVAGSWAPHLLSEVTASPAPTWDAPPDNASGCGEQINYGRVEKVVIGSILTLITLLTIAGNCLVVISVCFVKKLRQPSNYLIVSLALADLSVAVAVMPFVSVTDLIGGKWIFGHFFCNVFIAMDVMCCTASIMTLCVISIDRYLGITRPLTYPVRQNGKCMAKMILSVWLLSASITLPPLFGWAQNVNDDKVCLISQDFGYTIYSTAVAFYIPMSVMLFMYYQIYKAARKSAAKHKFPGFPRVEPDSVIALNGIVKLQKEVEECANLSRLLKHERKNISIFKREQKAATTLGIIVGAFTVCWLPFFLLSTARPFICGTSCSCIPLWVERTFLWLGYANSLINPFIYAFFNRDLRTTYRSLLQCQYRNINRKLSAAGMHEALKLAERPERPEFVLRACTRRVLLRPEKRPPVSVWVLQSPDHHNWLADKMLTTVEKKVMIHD

[38] = target: Dual specificity mitogen-activated protein kinase kinase 1 (Homo sapiens) (UniProt Q02750); assay: MAP2K1 Invitrogen Lab (UK) kinase screen (BI); conditions: Compound concentration 1.0 uM
[39] = target: Tyrosine-protein kinase Lck (Homo sapiens) (UniProt P06239); assay: LCK_CE Eurofins SafetyScreen44 (BI); conditions: Compound concentration 10.0 uM
[40] = target: 5-hydroxytryptamine receptor 2B (Homo sapiens) (UniProt P41595); conditions: Compound concentration 10.0 uM
5-hydroxytryptamine receptor 2B (Homo sapiens), sequence (P41595 whole entry): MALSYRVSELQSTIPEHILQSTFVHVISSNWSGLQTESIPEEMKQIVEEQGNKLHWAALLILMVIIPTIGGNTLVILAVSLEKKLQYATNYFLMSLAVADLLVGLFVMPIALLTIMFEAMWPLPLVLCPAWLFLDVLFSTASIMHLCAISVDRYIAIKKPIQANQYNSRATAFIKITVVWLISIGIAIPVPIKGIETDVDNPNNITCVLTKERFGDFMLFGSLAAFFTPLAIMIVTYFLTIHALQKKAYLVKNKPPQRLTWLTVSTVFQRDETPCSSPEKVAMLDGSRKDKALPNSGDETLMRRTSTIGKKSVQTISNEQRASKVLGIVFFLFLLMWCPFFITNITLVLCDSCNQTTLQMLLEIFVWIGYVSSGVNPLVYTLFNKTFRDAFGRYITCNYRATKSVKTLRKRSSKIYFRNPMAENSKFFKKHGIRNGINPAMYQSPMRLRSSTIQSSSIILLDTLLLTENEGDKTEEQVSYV

[41] = target: Serine/threonine-protein kinase TBK1 (Homo sapiens) (UniProt Q9UHD2); assay: TBK1 Invitrogen Lab (UK) kinase screen (BI); conditions: Compound concentration 1.0 uM
[42] = target: Serine/threonine-protein kinase 3 (Homo sapiens) (UniProt Q13188); assay: STK3 Invitrogen Lab (UK) kinase screen (BI); conditions: Compound concentration 1.0 uM
[43] = target: BDNF/NT-3 growth factors receptor (Homo sapiens) (UniProt Q16620); assay: NTRK2 Invitrogen Lab (UK) kinase screen (BI); conditions: Compound concentration 1.0 uM
[44] = target: Histamine H1 receptor (Homo sapiens) (UniProt P35367); conditions: Compound concentration 10.0 uM

For `CNC(=O)COc1cc2cc(Nc3nc(N4CCC(C(=O)N(C)C)CC4)ncc3Cl)cc(OC)c2n(C)c1=O`, the residual activity [1] was 99%, the residual activity [2] was 97% and the residual activity [3] was 96%. It also gave a residual activity [4] of 85%, a residual activity [5] of 93% and a residual activity [6] of 101%. It also gave an inhibition [7] of 38.2%, a residual activity [8] of 104% and a residual activity [9] of 88%. For the same compound, the inhibition [10] was 12.2%, the residual activity [11] was 101% and the residual activity [12] was 99%. It also gave an inhibition [13] of 14.1%, an inhibition [14] of 4.8% and a residual activity [15] of 96%. For the same compound, the inhibition [16] was 22.9%, the inhibition [17] was 12.9% and the residual activity [18] was 89%. The residual activity [19] was 90%, the residual activity [20] was 104% and the residual activity [21] was 86%. For the same compound, the residual activity [22] was 13%, the residual activity [23] was 121% and the inhibition [24] was -7.06%. It also gave a residual activity [25] of 93%, a residual activity [26] of 142% and a residual activity [27] of 97%. The residual activity [28] was 102%, the activity at 10 µM [29] was 95% (not active) and the residual activity [30] was 93%. For the same compound, the residual activity [31] was 106%, the residual activity [32] was 98% and the residual activity [33] was 97%. For the same compound, the residual activity [34] was 99%, the residual activity [35] was 101% and the residual activity [36] was 83%. The inhibition [37] was 18.2%, the residual activity [38] was 100% and the residual activity [39] was 99%. For the same compound, the inhibition [40] was -2.05%, the residual activity [41] was 97% and the residual activity [42] was 100%. It also gave a residual activity [43] of 88% and an inhibition [44] of 2.93%.
